{
  "source": "patent US9006188B2",
  "about": "“Co-crystals of dapagliflozin” (Mapi Pharma Ltd., priority 2013, dated 2015)",
  "key": {"[1]": {"assay": "Hygroscopicity by Dynamic Vapor Sorption (DVS), sorption/desorption profile", "format": "physicochemical", "conditions": "for appearance of sample after DVS testing: after DVS at 25° C., 0-95% relative humidity", "protocol": "(§1) The preparation of lactose co-crystal and asparagine co-crystal were scaled up and repeated (about 400 mg of dapagliflozin free form was dissolved in 26 ml of IPA) and XRPD, PLM, TGA, DSC, NMR and DVS analyses were conducted for physicochemical properties evaluation. Before physicochemical properties evaluation, the solids precipitated out were isolated and dried off at 40° C. for 4 hours in vacuum drier. After hygroscopicity test, the sample was retested by XRPD to determine if any form transformation during the DVS test.\n(§2) The sorption/desorption profiles of dapagliflozin Form I were tested at 25° C. under 0-95% relative humidity. […] This sample was tested by XRPD."}, "[2]": {"conditions": "XRPD after DVS at 25° C., 0-95% relative humidity", "protocol": "as §1, §2"}, "[3]": {"conditions": "−20° C., tightly closed, 1.5 month", "protocol": "Dapagliflozin was stored at −20° C., tightly closed. After being stored for 1.5 month, it was characterized by XRPD, MDSC and TGA to check if it is stable."}, "[4]": {"conditions": "DVS 25° C., cycle 1, target 0.0 % P/Po"}, "[5]": {"conditions": "DVS 25° C., cycle 1, target 5.0 % P/Po"}, "[6]": {"conditions": "DVS 25° C., cycle 1, target 10.0 % P/Po"}, "[7]": {"conditions": "DVS 25° C., cycle 1, target 15.0 % P/Po"}, "[8]": {"conditions": "DVS 25° C., cycle 1, target 20.0 % P/Po"}, "[9]": {"conditions": "DVS 25° C., cycle 1, target 25.0 % P/Po"}, "[10]": {"conditions": "DVS 25° C., cycle 1, target 30.0 % P/Po"}, "[11]": {"conditions": "DVS 25° C., cycle 1, target 35.0 % P/Po"}, "[12]": {"conditions": "DVS 25° C., cycle 1, target 40.0 % P/Po"}, "[13]": {"conditions": "DVS 25° C., cycle 1, target 45.0 % P/Po"}, "[14]": {"conditions": "DVS 25° C., cycle 1, target 50.0 % P/Po"}, "[15]": {"conditions": "DVS 25° C., cycle 1, target 55.0 % P/Po"}, "[16]": {"conditions": "DVS 25° C., cycle 1, target 60.0 % P/Po"}, "[17]": {"conditions": "DVS 25° C., cycle 1, target 65.0 % P/Po"}, "[18]": {"conditions": "DVS 25° C., cycle 1, target 70.0 % P/Po"}, "[19]": {"conditions": "DVS 25° C., cycle 1, target 75.0 % P/Po"}, "[20]": {"conditions": "DVS 25° C., cycle 1, target 80.0 % P/Po"}, "[21]": {"conditions": "DVS 25° C., cycle 1, target 85.0 % P/Po"}, "[22]": {"conditions": "DVS 25° C., cycle 1, target 90.0 % P/Po"}, "[23]": {"conditions": "DVS 25° C., cycle 1, target 95.0 % P/Po"}},
  "note": "Like-named read-outs stand apart in the source and are kept apart here.",
  "data": [
    {"smiles": "CCOc1ccc(Cc2cc([C@@H]3O[C@H](CO)[C@@H](O)[C@H](O)[C@H]3O)ccc2Cl)cc1", "note": "[Form I, (2S,3R,4R,5S,6R)-2-[4-chloro-3-(4-ethoxybenzyl)phenyl]-6-(hydroxymethyl)tetrahydro-2H-pyran-3,4,5-triol, reference compound]", "values": [
      {"measurement": "weight gain from 0 to 95% RH", "setting": "[1]; DVS 25° C., 0 to 95% RH", "value": 23.33, "unit": "%"},
      {"measurement": "Change In Mass (%) - ref, Desorption", "setting": "[1]; [4]", "value": 10.18, "unit": "%"},
      {"measurement": "Change In Mass (%) - ref, Sorption", "setting": "[1]; [4]", "value": 0.00, "unit": "%"},
      {"measurement": "Change In Mass (%) - ref, Desorption", "setting": "[1]; [5]", "value": 10.26, "unit": "%"},
      {"measurement": "Change In Mass (%) - ref, Hysteresis", "setting": "[1]; [5]", "value": 10.18, "unit": "%"},
      {"measurement": "Change In Mass (%) - ref, Sorption", "setting": "[1]; [5]", "value": 0.09, "unit": "%"},
      {"measurement": "Change In Mass (%) - ref, Desorption", "setting": "[1]; [6]", "value": 10.34, "unit": "%"},
      {"measurement": "Change In Mass (%) - ref, Hysteresis", "setting": "[1]; [6]", "value": 10.20, "unit": "%"},
      {"measurement": "Change In Mass (%) - ref, Sorption", "setting": "[1]; [6]", "value": 0.14, "unit": "%"},
      {"measurement": "Change In Mass (%) - ref, Desorption", "setting": "[1]; [7]", "value": 10.42, "unit": "%"},
      {"measurement": "Change In Mass (%) - ref, Hysteresis", "setting": "[1]; [7]", "value": 10.19, "unit": "%"},
      {"measurement": "Change In Mass (%) - ref, Sorption", "setting": "[1]; [7]", "value": 0.23, "unit": "%"},
      {"measurement": "Change In Mass (%) - ref, Desorption", "setting": "[1]; [8]", "value": 10.50, "unit": "%"},
      {"measurement": "Change In Mass (%) - ref, Hysteresis", "setting": "[1]; [8]", "value": 10.20, "unit": "%"},
      {"measurement": "Change In Mass (%) - ref, Sorption", "setting": "[1]; [8]", "value": 0.30, "unit": "%"},
      {"measurement": "Change In Mass (%) - ref, Desorption", "setting": "[1]; [9]", "value": 10.58, "unit": "%"},
      {"measurement": "Change In Mass (%) - ref, Hysteresis", "setting": "[1]; [9]", "value": 10.16, "unit": "%"},
      {"measurement": "Change In Mass (%) - ref, Sorption", "setting": "[1]; [9]", "value": 0.41, "unit": "%"},
      {"measurement": "Change In Mass (%) - ref, Desorption", "setting": "[1]; [10]", "value": 10.66, "unit": "%"},
      {"measurement": "Change In Mass (%) - ref, Hysteresis", "setting": "[1]; [10]", "value": 10.10, "unit": "%"},
      {"measurement": "Change In Mass (%) - ref, Sorption", "setting": "[1]; [10]", "value": 0.55, "unit": "%"},
      {"measurement": "Change In Mass (%) - ref, Desorption", "setting": "[1]; [11]", "value": 10.74, "unit": "%"},
      {"measurement": "Change In Mass (%) - ref, Hysteresis", "setting": "[1]; [11]", "value": 9.91, "unit": "%"},
      {"measurement": "Change In Mass (%) - ref, Sorption", "setting": "[1]; [11]", "value": 0.83, "unit": "%"},
      {"measurement": "Change In Mass (%) - ref, Desorption", "setting": "[1]; [12]", "value": 10.83, "unit": "%"},
      {"measurement": "Change In Mass (%) - ref, Hysteresis", "setting": "[1]; [12]", "value": 9.65, "unit": "%"},
      {"measurement": "Change In Mass (%) - ref, Sorption", "setting": "[1]; [12]", "value": 1.18, "unit": "%"},
      {"measurement": "Change In Mass (%) - ref, Desorption", "setting": "[1]; [13]", "value": 10.97, "unit": "%"},
      {"measurement": "Change In Mass (%) - ref, Hysteresis", "setting": "[1]; [13]", "value": 9.22, "unit": "%"},
      {"measurement": "Change In Mass (%) - ref, Sorption", "setting": "[1]; [13]", "value": 1.75, "unit": "%"},
      {"measurement": "Change In Mass (%) - ref, Desorption", "setting": "[1]; [14]", "value": 11.15, "unit": "%"},
      {"measurement": "Change In Mass (%) - ref, Hysteresis", "setting": "[1]; [14]", "value": 8.85, "unit": "%"},
      {"measurement": "Change In Mass (%) - ref, Sorption", "setting": "[1]; [14]", "value": 2.31, "unit": "%"},
      {"measurement": "Change In Mass (%) - ref, Desorption", "setting": "[1]; [15]", "value": 11.35, "unit": "%"},
      {"measurement": "Change In Mass (%) - ref, Hysteresis", "setting": "[1]; [15]", "value": 8.46, "unit": "%"},
      {"measurement": "Change In Mass (%) - ref, Sorption", "setting": "[1]; [15]", "value": 2.89, "unit": "%"},
      {"measurement": "Change In Mass (%) - ref, Desorption", "setting": "[1]; [16]", "value": 11.59, "unit": "%"},
      {"measurement": "Change In Mass (%) - ref, Hysteresis", "setting": "[1]; [16]", "value": 8.05, "unit": "%"},
      {"measurement": "Change In Mass (%) - ref, Sorption", "setting": "[1]; [16]", "value": 3.54, "unit": "%"},
      {"measurement": "Change In Mass (%) - ref, Desorption", "setting": "[1]; [17]", "value": 11.95, "unit": "%"},
      {"measurement": "Change In Mass (%) - ref, Hysteresis", "setting": "[1]; [17]", "value": 7.67, "unit": "%"},
      {"measurement": "Change In Mass (%) - ref, Sorption", "setting": "[1]; [17]", "value": 4.27, "unit": "%"},
      {"measurement": "Change In Mass (%) - ref, Desorption", "setting": "[1]; [18]", "value": 12.47, "unit": "%"},
      {"measurement": "Change In Mass (%) - ref, Hysteresis", "setting": "[1]; [18]", "value": 7.53, "unit": "%"},
      {"measurement": "Change In Mass (%) - ref, Sorption", "setting": "[1]; [18]", "value": 4.94, "unit": "%"},
      {"measurement": "Change In Mass (%) - ref, Desorption", "setting": "[1]; [19]", "value": 13.23, "unit": "%"},
      {"measurement": "Change In Mass (%) - ref, Hysteresis", "setting": "[1]; [19]", "value": 7.02, "unit": "%"},
      {"measurement": "Change In Mass (%) - ref, Sorption", "setting": "[1]; [19]", "value": 6.21, "unit": "%"},
      {"measurement": "Change In Mass (%) - ref, Desorption", "setting": "[1]; [20]", "value": 14.44, "unit": "%"},
      {"measurement": "Change In Mass (%) - ref, Hysteresis", "setting": "[1]; [20]", "value": 5.71, "unit": "%"},
      {"measurement": "Change In Mass (%) - ref, Sorption", "setting": "[1]; [20]", "value": 8.73, "unit": "%"},
      {"measurement": "Change In Mass (%) - ref, Desorption", "setting": "[1]; [21]", "value": 16.99, "unit": "%"},
      {"measurement": "Change In Mass (%) - ref, Hysteresis", "setting": "[1]; [21]", "value": 4.90, "unit": "%"},
      {"measurement": "Change In Mass (%) - ref, Sorption", "setting": "[1]; [21]", "value": 12.09, "unit": "%"},
      {"measurement": "Change In Mass (%) - ref, Desorption", "setting": "[1]; [22]", "value": 21.36, "unit": "%"},
      {"measurement": "Change In Mass (%) - ref, Hysteresis", "setting": "[1]; [22]", "value": 4.66, "unit": "%"},
      {"measurement": "Change In Mass (%) - ref, Sorption", "setting": "[1]; [22]", "value": 16.70, "unit": "%"},
      {"measurement": "Change In Mass (%) - ref, Desorption", "setting": "[1]; [23]", "value": 23.33, "unit": "%"},
      {"measurement": "Change In Mass (%) - ref, Sorption", "setting": "[1]; [23]", "value": 23.33, "unit": "%"},
      {"measurement": "appearance of sample after DVS testing", "setting": "[1]", "value": "thick gel"},
      {"measurement": "appearance of sample after DVS testing", "setting": "[1]; listed as dapagliflozin Form I", "value": "thick gel-like material"},
      {"measurement": "hygroscopicity classification", "setting": "[1]; based on DVS weight gain from 0 to 95% RH", "value": "very hygroscopic"},
      {"measurement": "form transformation after DVS test (XRPD)", "setting": "[2]", "value": "an amorphous form (not containing the 32 deg peak) was detected"},
      {"measurement": "form transformation after DVS test (XRPD)", "setting": "[2]; listed as dapagliflozin Form I", "value": "the amorphous was found after testing DVS"},
      {"measurement": "stability on storage (form transformation by XRPD, MDSC, TGA)", "setting": "[3]", "value": "stable"},
      {"measurement": "stability on storage (form transformation by XRPD, MDSC, TGA)", "setting": "[3]; listed as Dapagliflozin", "value": "no form transformation was detected"}
    ]}
  ]
}
